Measured values reported in ChEMBL document CHEMBL3352491, “Novel semicarbazides and ureas of primaquine with bulky aryl or hydroxyalkyl substituents: synthesis, cytostatic and antioxidative activity” (Eur J Med Chem, 2014).

What was measured:
L1210 = test: Cytostatic activity against mouse L1210 cells assessed as growth inhibition after 3 to 4 days by MTT assay; format: functional, cell-based
[1] = Cytostatic activity against human Molt4/C8 cells assessed as growth inhibition after 3 to 4 days by MTT assay; format: functional, cell-based; details: MOLT-4
CCRF-CEM = test: Cytostatic activity against human CEM cells assessed as growth inhibition after 3 to 4 days by MTT assay; format: functional, cell-based
HeLa = test: Cytostatic activity against human HeLa cells assessed as growth inhibition after 3 to 4 days by MTT assay; format: functional, cell-based
[2] = Cytostatic activity against human MIAPaCa2 cells assessed as growth inhibition after 3 to 4 days by MTT assay; format: functional, cell-based; details: MIA PaCa-2
SW-620 = test: Cytostatic activity against human SW620 cells assessed as growth inhibition after 3 to 4 days by MTT assay; format: functional, cell-based
MCF7 = test: Cytostatic activity against human MCF7 cells assessed as growth inhibition after 3 to 4 days by MTT assay; format: functional, cell-based
[3] = Cytostatic activity against human H460 cells assessed as growth inhibition after 3 to 4 days by MTT assay; format: functional, cell-based; details: NCI-H460
[4] = Antioxidant activity assessed as DPPH scavenging activity at 100 uM after 20 mins by spectrophotometry; format: physicochemical
[5] = Antioxidant activity assessed as DPPH scavenging activity at 100 uM after 60 mins by spectrophotometry; format: physicochemical; details: 1 h
[6] = Antioxidant activity assessed as inhibition of lipid peroxidation at 100 uM by spectrophotometry; format: physicochemical
Lipoxygenase = Lipoxygenase (Glycine max, UniProt Q39829); test: Inhibition of soybean LOX using sodium linoleate as substrate by spectrophotometry; details: read-out: IC50
[7] = target: Lipoxygenase (Glycine max) (UniProt Q39829); test: Inhibition of soybean LOX using sodium linoleate as substrate at 100 uM by spectrophotometry

SMILES	IC50 (L1210) [µM]	IC50 [1] [µM]	IC50 (CCRF-CEM) [µM]	IC50 (HeLa) [µM]	IC50 [2] [µM]	IC50 (SW-620) [µM]	IC50 (MCF7) [µM]	IC50 [3] [µM]	Activity [4]	Activity [5]	inhibition (INH) [6]	IC50 (Lipoxygenase) [µM]	inhibition [7] [%]
COc1cc(NC(C)CCCNC(=O)NCCNC(c2ccccc2)(c2ccccc2)c2ccccc2)c2ncccc2c1 (stereo unspecified)	40	210	10	38	40	54	45	> 100	Not Active	12%	89%	93	–
COc1cc(NC(C)CCCNC(=O)N(C)C(c2ccccc2)c2ccccc2)c2ncccc2c1 (stereo unspecified)	6.7	10	5.2	121	21	> 100	9	≥ 100	20%	16%	79%	–	–
O=C1NCCN1C(c1ccccc1)(c1ccccc1)c1ccccc1	68	21	27	102	31	≥ 100	63	> 100	Not Active	Not Active	20%	–	6
NNC(=O)NC(c1ccccc1)c1ccc(Cl)cc1 (stereo unspecified)	≥ 250	≥ 250	217	182	178	> 100	≥ 100	> 100	14%	27%	52%	–	9
Cc1c(C)c2c(c(C)c1O)CCC(C)(C(=O)O)O2 (stereo unspecified) [TROLOX]	–	–	–	–	–	–	–	–	–	–	63%	–	–
CCOC(=O)NC(c1ccccc1)c1ccc(Cl)cc1 (stereo unspecified)	> 250	> 250	> 250	> 250	142	> 100	> 100	> 100	Not Active	Not Active	21%	–	–
CCOC(=O)N(C)C(c1ccccc1)c1ccccc1	96	105	108	80	94	27	26	≥ 100	Not Active	Not Active	Not Active	–	–
COc1cc(NC(C)CCCNC(=O)NCCCC(C)Nc2cc(OC)cc3cccnc23)c2ncccc2c1 (stereo unspecified)	92	> 250	5	> 250	186	> 100	6	> 100	20%	32%	89%	–	6
COc1cc(NC(C)CCCNC(=O)NNC(=O)NC(CO)(CO)CO)c2ncccc2c1 (stereo unspecified)	> 250	> 250	> 250	> 250	> 250	> 100	28	> 100	18%	40%	49%	–	6
COc1cc(NC(C)CCCNC(=O)Nc2ccc(Cl)c(C(F)(F)F)c2)c2ncccc2c1 (stereo unspecified)	3.6	3.4	3.1	3.9	4	23	4	28	20%	21%	61%	–	43
CN(C(=O)NN)C(c1ccccc1)c1ccccc1	≥ 250	144	127	174	127	> 100	≥ 100	> 100	24%	47%	7%	–	–
COc1cc(NC(C)CCCNC(=O)NN)c2ncccc2c1 (stereo unspecified)	> 250	≥ 250	> 250	≥ 250	≥ 250	> 100	16	> 100	61%	82%	70%	–	42
COc1cc(NC(C)CCCNC(=O)NNC(=O)NCCCC(C)Nc2cc(OC)cc3cccnc23)c2ncccc2c1 (stereo unspecified)	92	≥ 250	87	67	69	> 100	0.2	94	18%	37%	65%	–	31
COc1cc(NC(C)CCCNC(=O)NNC(=O)N(C)C(c2ccccc2)c2ccccc2)c2ncccc2c1 (stereo unspecified)	16	19	10	22	18	27	5	16	44%	73%	69%	–	44
O=C(NC(c1ccccc1)c1ccc(Cl)cc1)n1nnc2ccccc21 (stereo unspecified)	67	176	116	87	110	23	42	18	24%	12%	63%	–	28
COc1cc(NC(C)CCCNC(=O)NNC(=O)N(CCO)CCO)c2ncccc2c1 (stereo unspecified)	> 250	> 250	> 250	> 250	> 250	> 100	29	> 100	25%	45%	43%	–	30
COc1cc(NC(C)CCCNC(=O)NNC(=O)NCCCCCO)c2ncccc2c1 (stereo unspecified)	> 250	≥ 250	170	≥ 250	168	> 100	4	> 100	14%	32%	54%	–	4
O=C(NC(c1ccccc1)c1ccc(Cl)cc1)NC(c1ccccc1)c1ccc(Cl)cc1 (stereo unspecified)	250	> 250	> 250	> 250	97	> 100	> 100	> 100	Not Active	Not Active	33%	–	38
